# What was measured:
# Format in all cases: in vivo, human
# Hodgkin Lymphoma (HL) = experiment: Phase II clinical study with tipifarnib in relapsed or refractory lymphoma patients: HL subjects; conditions: among 6 HL patients with pre-treatment tumor samples; 300 mg orally bid days 1-21 of 28 day cycles
# Method: A Phase II clinical study with tipifarnib was performed in relapsed or refractory non-Hodgkin's lymphoma patients (N=93), wherein the types of non-Hodgkin's lymphoma included Diffuse Large B Cell Lymphoma (DLBCL) and Mycosis Fungoides (MF). Eligible patients received 300 mg tipifarnib as a single agent orally, twice a day (bid) on days 1-21 of 28 day cycles. Courses were repeated every 28 days in the absence of disease progression or unacceptable toxicity. Primary objective of assessing objective tumor response, in terms of Objective Response Rate (ORR), was determined using the International Workshop Criteria (IWC). […]
# [1] = tested on: relapsed or refractory Diffuse Large B Cell Lymphoma (DLBCL); experiment: Phase II clinical study with tipifarnib in relapsed or refractory non-Hodgkin's lymphoma patients: DLBCL subjects; parameters: key to Best Response: a partial response (PR); Stable disease (SD) can be defined as any response not meeting CR, PR, HI, or PD criteria; Progressive disease (PD) can be defined as either >50% increase in lymph node or circulating blast % from baseline, or new appearance of circulating blasts (on at least 2 consecutive occasions)
# Method: A Phase II clinical study with tipifarnib was performed in relapsed or refractory non-Hodgkin's lymphoma patients (N=93), wherein the types of non-Hodgkin's lymphoma included Diffuse Large B Cell Lymphoma (DLBCL) and Mycosis Fungoides (MF). Eligible patients received 300 mg tipifarnib as a single agent orally, twice a day (bid) on days 1-21 of 28 day cycles. Courses were repeated every 28 days in the absence of disease progression or unacceptable toxicity. Primary objective of assessing objective tumor response, in terms of Objective Response Rate (ORR), was determined using the International Workshop Criteria (IWC).
# Exclusion Criteria for this clinical study include: (a) pregnant women; (b) breastfeeding women; (c) men or women of childbearing potential or their sexual partners who are unwilling to employ adequate contraception (condoms, diaphragm, birth control pills, injections, intrauterine device [IUD], surgical sterilization, subcutaneous implants, or abstinence, etc.); (d) life-threatening illness (unrelated to tumor); (e) ongoing radiation therapy or radiation therapy ≤3 weeks prior to study registration unless the acute side effects associated with such therapy are resolved; (f) therapy with myelosuppressive chemotherapy, cytotoxic chemotherapy, or biologic therapy ≤3 weeks (6 weeks for nitrosourea or mitomycin C) or corticosteroids ≤2 weeks, prior to starting R11577; patients may be on corticosteroids or tapering off them up until the day they start R11577 as long as it is clear that they are not having a tumor response to the steroids or that the steroids would confuse the interpretation of response to R11577; patients may be receiving stable (not increased within the last month) chronic doses of corticosteroids with a maximum dose of 20 mg of prednisone per day if they are being given for disorders other than lymphoma such as rheumatoid arthritis, polymyalgia rheumatica, adrenal insufficiency, or intractable symptoms of lymphoma; (g) peripheral neuropathy ≥grade 3; (h) serious non-malignant disease such as active infection or other condition which in the opinion of the investigator would compromise other protocol objectives; (i) presence of central nervous system (CNS) lymphoma; (j) other active malignancies; (k) once a patient begins FTI (tipifarnib) treatment, the addition of other cancer treatment will confound the assessment of efficacy and therefore is not allowed; this restriction precludes the addition of cytotoxic, immunologic agents, radiotherapy, or an increase in corticosteroid dose while the patient is in the treatment phase of this protocol; (l) known to be human immunodeficiency virus (HIV) positive; HIV testing is not required but should be done if clinically indicated; HIV patients are excluded because of concerns regarding excess risk of complications of immunosuppressive therapy regimens; and (m) known allergy to imidazole drugs such as clotrimazole, ketoconazole, miconazole, econazole, fenticonazole, sulconazole, tioconazole, or terconazole.
# Pre-treatment tumor samples and best response data were obtained from 20 patients (N=20): 6 Diffuse Large B Cell Lymphoma (DLBCL), 6 Hodgkin Lymphoma (HL), 4 Follicular Lymphoma (FL), 1 Marginal Zone B Cell Lymphoma, 1 PTCL NOS, and 2 Mycosis Fungoides (MF). Within these 20 patients, the following objective responses were identified: 3 PRs and 1 SD were reported in DLBCL, 1PR in HL, and 2PRs in MF.
# CXCL12, CXCR4, CXCR7, and PRICLKE2, mRNA expression data were generated by RNASeq and expressed as RNA Seq RSEM.
# Mycosis Fungoides (MF) = experiment: Phase II clinical study with tipifarnib in relapsed or refractory non-Hodgkin's lymphoma patients: MF subjects
# Method: A Phase II clinical study with tipifarnib was performed in relapsed or refractory non-Hodgkin's lymphoma patients (N=93), wherein the types of non-Hodgkin's lymphoma included Diffuse Large B Cell Lymphoma (DLBCL) and Mycosis Fungoides (MF). Eligible patients received 300 mg tipifarnib as a single agent orally, twice a day (bid) on days 1-21 of 28 day cycles. Courses were repeated every 28 days in the absence of disease progression or unacceptable toxicity. Primary objective of assessing objective tumor response, in terms of Objective Response Rate (ORR), was determined using the International Workshop Criteria (IWC). […] CXCL12, CXCR4, CXCR7, and […]2, mRNA expression data were generated by RNASeq and expressed as RNA Seq RSEM.
# [2] = among 6 DLBCL patients with pre-treatment tumor samples, 300 mg orally bid days 1-21 of 28 day cycles
# [3] = high PRICKLE2 and CXCL12/CXCR4 ratio greater than about 1/10 (about 0.10), out of 6 subjects (FIG. 2B)
# [4] = low PRICKLE2 and lower CXCL12/CXCR4 ratio, cut-off about 1/10 (about 0.10), out of 6 subjects (FIG. 2B)
# [5] = low PRICKLE2 and lower CXCL12/CXCR4 ratio, cut-off about 3/20 (about 0.15), out of 6 subjects (FIG. 2B)
# [6] = low pre-treatment CXCL12 expression levels, out of 6 subjects (FIG. 1A)
# [7] = low pre-treatment PRICKLE2 expression levels, out of 6 subjects (FIG. 2A)
smiles,measurement,setting,value
Cn1cncc1[C@@](N)(c1ccc(Cl)cc1)c1ccc2c(c1)c(-c1cccc(Cl)c1)cc(=O)n2C [tipifarnib],Number of PR (objective responses),Hodgkin Lymphoma (HL),1
same,Best Response,"[1]; DLBCL subject with pre-treatment tumor CXCL12/CXCR7 ratio 1.4, 300 mg orally bid days 1-21 of 28 day cycles",PD
same,Best Response,"[1]; DLBCL subject with pre-treatment tumor CXCL12/CXCR7 ratio 3.5, 300 mg orally bid days 1-21 of 28 day cycles",PD
same,Best Response,"[1]; DLBCL subject with pre-treatment tumor CXCL12/CXCR7 ratio 3.7, 300 mg orally bid days 1-21 of 28 day cycles",SD
same,Best Response,"[1]; DLBCL subject with pre-treatment tumor CXCL12/CXCR7 ratio 6.6, 300 mg orally bid days 1-21 of 28 day cycles",PR
same,Best Response,"[1]; DLBCL subject with pre-treatment tumor CXCL12/CXCR7 ratio 30.8, 300 mg orally bid days 1-21 of 28 day cycles",PR
same,Best Response,"[1]; DLBCL subject with pre-treatment tumor CXCL12/CXCR7 ratio 66.8, 300 mg orally bid days 1-21 of 28 day cycles",PR
same,Best Response,"[1]; Patient 35, DLBCL, pre-treatment tumor CXCL12/CXCR4 ratio 1.280, 300 mg orally bid days 1-21 of 28 day cycles",PR
same,Best Response,"[1]; Patient 38, DLBCL, pre-treatment tumor CXCL12/CXCR4 ratio 0.505, 300 mg orally bid days 1-21 of 28 day cycles",PR
same,Best Response,"[1]; Patient 39, DLBCL, pre-treatment tumor CXCL12/CXCR4 ratio 0.179, 300 mg orally bid days 1-21 of 28 day cycles",PR
same,Best Response,"[1]; Patient 42, DLBCL, pre-treatment tumor CXCL12/CXCR4 ratio 0.122, 300 mg orally bid days 1-21 of 28 day cycles",SD
same,Best Response,"[1]; Patient 43, DLBCL, pre-treatment tumor CXCL12/CXCR4 ratio 0.050, 300 mg orally bid days 1-21 of 28 day cycles",PD
same,Best Response,"[1]; Patient 44, DLBCL, pre-treatment tumor CXCL12/CXCR4 ratio 0.012, 300 mg orally bid days 1-21 of 28 day cycles",PD
same,Number of PRs (objective responses),[1]; [2],3
same,Number of SD (objective responses),[1]; [2],1
same,Number of PR responses,[1]; [3],3
same,Number of SD responses,[1]; [3],1
same,Number of PR responses,"[1]; high PRICKLE2 and CXCL12/CXCR4 ratio greater than about 3/20 (about 0.15), out of 6 subjects (FIG. 2B)",3
same,Number of PR responses,"[1]; high pre-treatment CXCL12 expression levels, out of 6 subjects (FIG. 1A)",3
same,Number of PR responses,"[1]; high pre-treatment PRICKLE2 expression levels, out of 6 subjects (FIG. 2A)",3
same,Number of PD responses,[1]; [4],2
same,Number of PR responses,[1]; [4],0
same,Number of SD responses,[1]; [4],0
same,Number of PD responses,[1]; [5],2
same,Number of PR responses,[1]; [5],0
same,Number of SD responses,[1]; [5],1
same,Number of PD responses,[1]; [6],2
same,Number of PR responses,[1]; [6],0
same,Number of SD responses,[1]; [6],1
same,Number of PD responses,[1]; [7],2
same,Number of PR responses,[1]; [7],0
same,Number of SD responses,[1]; [7],1
same,Number of PR responses,"Mycosis Fungoides (MF); MF patients having high pre-treatment CXCL12 expression levels, out of 2 subjects",2
same,Number of PR responses,"Mycosis Fungoides (MF); MF, low pre-treatment CXCL12 expression levels, out of 2 subjects",0
same,Number of PRs (objective responses),"Mycosis Fungoides (MF); among 2 MF patients with pre-treatment tumor samples, 300 mg orally bid days 1-21 of 28 day cycles",2
same,Number of PRs,"Mycosis Fungoides (MF); two MF subjects with CXCL12/CXCR4 expression ratio of 0.6 and 2.0, out of 2 subjects",2

# From patent US20220168296A1, “METHODS OF TREATING CANCER WITH FARNESYLTRANSFERASE INHIBITORS” (Kura Oncology, Inc., priority 2019, published 2022)
